The results in this text go back to PubChem BioAssay AID2305 (GlaxoSmithKline (GSK), 2010).

Where “and” joins values, the source holds several entries; their conditions need not be identical. Identical values can stand only once.

The assay deals with P. falciparum 3D7 growth, pLDH absorbance. Put plainly: blood-stage malaria parasite growth potency – strain 3D7, dose response (AID 2305).
`CCOC(=O)c1ccc(-n2c(C)cc(C=C3SC(=Nc4ccccc4)N(C4CCCC4)C3=O)c2C)cc1` came in with an IC50 of 1170 nM. In the case of `O=C(NC(CCCN1CCC2(CC1)OCc1ccccc12)c1ccc(Cl)c(Cl)c1)c1cc(C(F)(F)F)cc(C(F)(F)F)c1` (stereo not given) it was 540 nM; in that of `CCN(CC)CCN(Cc1ccc(-c2ccc(C(F)(F)F)cc2)nc1)C(=O)Cn1cc(Cc2cnn(C)c2)c(=O)n2nc(-c3ccccc3)cc12`, 990 nM. For `O=C(Nc1cc2cc(-c3ccc(CN4CCCCC4)cc3)ccc2n2cnnc12)NC1CCCC1` the value was 1520 nM. For `CC(Cc1ccc(NC(=O)c2ccc(CNCCCCc3ccccc3)cc2)cc1)NCCc1cccc(Cl)c1` (stereo not given) the value was 330 nM; for `COC(=O)c1cccc(C#CCCOCCCCCCNC[C@H](O)c2cc(Cl)c(N)c(Cl)c2)c1`, 770 nM; for `CN(Cc1cccc(O)c1)C1CCCN(c2cc(NC(=O)c3ccc(F)cc3)ccn2)C1` (stereo not given), 1070 nM. `Fc1cc(Cl)ccc1Nc1ccnc2cc(-c3ccc(CN4CCCCC4)o3)ccc12` had an IC50 of 340 nM. Against the preceding compound, the IC50 is about 3.1-fold lower. In the case of `COc1cc(Cc2cnc(N)nc2N)ccc1OCc1ccc(-c2csnn2)cc1` it was 630 nM; in that of `CCC(C)NC(=O)Cn1c2ncccc2c(=O)n1-c1ccc(C)cc1` (stereo not given), 1260 nM; in that of `O=C(/C=C/c1ccc(Cl)c(Cl)c1)NCCCCCN1CCC(NS(=O)(=O)c2cc(Cl)cc(Cl)c2)CC1`, 1240 nM. For `CCOc1ccc(NC(=O)c2cn3nc(-c4ccc(OCC)cc4)cc3nc2C2CCNCC2)cc1` the value was 510 nM; for `Cc1cc(NC(=O)c2ccc(-c3ccccc3)cc2)no1`, 1020 nM; for `O=C(Nc1ccc(Cl)c(C(F)(F)F)c1)c1ccc(C(=O)Nc2ccc(Cl)c(C(F)(F)F)c2)cc1`, 1000 nM. As for `Fc1ccc2nc(-c3ccc(-c4cccc(CN5CCN(c6ccncc6)CC5)c4)cc3)[nH]c2c1`, the IC50 was 90 nM. Compound `Clc1ccc(Cn2nc(Br)nc2Br)c(Cl)c1` returned a half-maximal inhibitory concentration (IC50) of 440 nM. In the case of `Cc1cc(C)c(C(=O)Nc2ccc3nc(C)cc(N)c3c2)c(C)c1` it was 1090 nM.

`CCOc1ccc2nc3cc([N+](=O)[O-])ccc3c(N)c2c1` had an IC50 of 140 nM. Consider `Cc1ccccc1CN1CCCN(Cc2ccc(C(=O)Nc3ccc(C(C)(C)C)cc3)cc2)CC1`, for which the IC50 was determined as 860 nM.

As for `O=S(=O)(Nc1cccc(CCN2CCCCC2CCN2CCCC2)c1)c1ccc(-c2ccccc2)cc1` (stereo not given), the IC50 is 1090 nM. This IC50 and that of the compound before are within 1.5-fold of each other. For `Nc1nc2cccc3ccc4cccc1c4c32` the value was 920 nM; for `COc1cc2c(=O)c(Cc3ccc(Cl)cc3)c(C)[nH]c2cc1F`, 1160 nM; for `Cc1cccc2[nH]c(-c3cccc(-c4ccc(NC(=O)c5ccncc5)cc4)c3)nc12`, 500 nM. In the case of `Cc1cc(-c2cccc(CNC3CCN(C)CC3)c2)ccc1S(=O)(=O)NCc1ccccc1` it was 820 nM; in that of `Cc1[nH]c(C)c(-c2ccc(Oc3ccc(OC(F)(F)F)cc3)cc2)c(=O)c1I`, 130 nM; in that of `CCS(=O)(=O)Nc1ccc2[nH]cc(C3CCN(CCC4CCN(C(=O)/C=C/c5ccc(Cl)c(Cl)c5)CC4)CC3)c2c1`, 530 nM. For `Cc1cc(NCCc2ccccc2)nc(/N=C(\N)Nc2ccc(Cl)cc2)n1` the value was 230 nM; for `O=c1cc(NCCCNCc2cc3ccc(Br)cc3s2)[nH]c2ccccc12`, 990 nM; for `COc1ccc2ncc(F)c(CCN3CCC4(CC3)COC(c3cc5c(cn3)OCCO5)=N4)c2n1`, 220 nM. For the compound `O=C(Cn1c(SCc2cccc(F)c2F)cc(=O)c2ccccc21)N(CCN1CCCCC1)Cc1ccc(-c2ccc(C(F)(F)F)cc2)cc1`, the IC50 was 660 nM. In the case of `COc1ccc(S(=O)(=O)N2CCOCC2)cc1NC(=O)c1cc2ccccc2o1` it was 790 nM. In turn, `CC(=O)Oc1c(C(=O)C2CCC(C(C)(C)C)CC2)c(OC(C)=O)c2ccccc2c1OC(C)=O` (stereo not given) came in with a half-maximal inhibitory concentration (IC50) of 270 nM. Turning to `O=C(N[C@@H](Cc1cc(F)cc(F)c1)[C@H](O)CNCc1cccc(C(F)(F)F)c1)c1cc(C2CCCC2)cc(N2CCCC2=O)c1`, the IC50 worked out at 800 nM. In the case of `COCCn1c(C)nc2ccccc2c1=O` it was 1460 nM; in that of `CCC/C=C/c1c(CNCCCNc2cc(=O)c3ccccc3[nH]2)sc(CC)c1Br`, 890 nM; in that of `COc1ccc2ncc(F)c([C@H](O)CN3CCC(NCc4ccc5c(c4)OCCO5)CC3)c2c1`, 150 nM. In the case of `c1cncc(Oc2ccc(Nc3ccnc4cc(-c5cccc(CN6CCCCC6)c5)ccc34)cc2)c1` it was 120 nM; in that of `COCc1ccc(CN2CCC(C(=O)Nc3ccc(-c4nc5ccccc5[nH]4)cc3)CC2)o1`, 850 nM; in that of `CCCCN1CCN(CC(O)CNC(=O)Nc2ccc(Cl)cc2)CC1` (stereo not given), 70 nM. In the case of `O=S(=O)(Nc1cccc(CCN2CCCCC2CCN2CCCC2)c1)c1ccc(Oc2ccccc2)cc1` (stereo not given) it was 1050 nM; in that of `O=C1COC2(CN1C1CCN(Cc3ccc(O)cc3Cl)C1)c1ccccc1-c1ccccc12` (stereo not given), 1330 nM. With `O=C(Nc1ccccc1Cl)NC1CCC(CN2CCC(c3c[nH]c4ccccc34)CC2)CC1` (stereo not given), the IC50 was 800 nM and 750 nM.

For `COc1ccc(C2CC(=O)C3=C(C2)NC(C)=C(C(=O)OC(C)C)C3c2ccc(O)cc2)cc1OC` (stereo not given), the IC50 was determined as 280 nM. For `COc1cc(CNC2Cc3ccccc3C2)ccc1Oc1ccc2nc[nH]c2c1` the value was 950 nM; for `C[C@@]12C[C@@H](Nc3nc(NCCc4ccc(O)cc4)nc(N4CCNCC4)n3)C[C@@H](C1)c1cccc(Cl)c1O2`, 1320 nM. For the compound `NC1=NC(c2ccccc2)(c2ccccc2)C(=O)N1Cc1ccc(-c2ccncc2)cc1`, the IC50 came to 770 nM. For `O=C(Nc1cccc(CN2CCN(Cc3ccc(O)cc3)CC2)c1)c1cccc(C(F)(F)F)c1` the value was 1210 nM; for `Cc1cnc(CN(Cc2ccc(-c3ccc(CNCCc4ccc(S(C)(=O)=O)cc4)cn3)cc2)C(=O)c2ccc([N+](=O)[O-])c(C)c2)cn1`, 920 nM; for `CC(NC(C)c1cccc(Cl)c1)C(=O)Nc1cc(C(F)(F)F)ccc1N1CCOCC1` (stereo not given), 1090 nM. In the case of `Cc1cc(NC(=O)Nc2ccc(Oc3ccccc3)cc2)c2ccccc2n1` it was 840 nM; in that of `O=C(NC1CCN(c2ccnc3ccccc23)C1)c1ccc(OC(F)(F)F)cc1` (stereo not given), 1150 nM; in that of `COc1ccc(-c2cccc(NC(=O)c3ccccc3)c2)cc1CN1CCCN(C)CC1`, 730 nM. Turning to `N#Cc1ccc(N[C@@H](CC2CCCCC2)C(=O)Nc2ccc(-c3ccccc3)cc2)c2ccccc12`, the IC50 is 600 nM. The IC50 values of the last two compounds are within 1.5-fold of each other. For `O=C1C(c2ccccc2)=C(Nc2ccc([N+](=O)[O-])cc2)c2ccccc21` the value was 870 nM; for `COc1cccc2cc(C(=O)N[C@@H](CC(C)C)C(=O)N[C@H](/C=N/N3CCCC3=O)Cc3ccccc3)oc12`, 560 nM; for `Cc1c(CNCCCNc2cc(=O)c3ccccc3[nH]2)sc(/C=N/O)c1Br`, 1080 nM.

In turn, `Oc1ccc2[nH]c(-c3cccc(F)c3)nc2c1CN1CCCC1` returned an IC50 of 800 nM. The compound `O=C(/C=C/c1ccc(-c2nc3ccc(Cl)cc3[nH]2)cc1)NC1CCN(Cc2ccccc2)CC1` gave an IC50 of 610 nM.

Compound `O=C1C(c2ccccc2)=C(Nc2cccc([N+](=O)[O-])c2)c2ccccc21` came in with an IC50 of 890 nM. In the case of `CCCCCCCc1c2c(C)c(C(=O)OCC)nc-2cc2n1CC(C)=C2C` it was 1140 nM; in that of `CN1CCC(C(=O)Nc2ccc(-c3cccc(-c4nc5ccc(C(F)(F)F)cc5[nH]4)c3)cc2)CC1`, 580 nM. Consider `c1cncc(Oc2ccc(Nc3ccnc4cc(-c5cccc(CNCCN6CCOCC6)c5)ccc34)cc2)c1`, for which the IC50 was 110 nM.

`O=C(CCCCCNC(=O)c1ccc(O)c(-c2ccc(Cl)c(Cl)c2)c1)NCc1cccc2ccccc12` displayed an IC50 of 760 nM. For `O=C(c1cccs1)N1CCN(c2ccc([N+](=O)[O-])c(NC3CC3)c2)CC1` the value was 770 nM. With `COc1cccc(-c2cc(C(F)(F)F)n3ncc(C(=O)Nc4cc(C)ccc4O)c3n2)c1`, the IC50 was determined as 160 nM. On to `Cc1ccc(-c2cc(C(=O)Nc3ccc(S(=O)(=O)N4CCCCC4)cc3)[nH]n2)c(O)c1`, for which the half-inhibitory concentration (IC50) was 1770 nM. For the compound `Cc1ccc(NC(=O)c2ccc3nccnc3c2)cc1OC1CCN(Cc2ccc(F)cc2)CC1`, the concentration for half-maximal inhibition (IC50) was 1010 nM. In the case of `CCCN(CCC)C(=O)c1cc(C(=O)N[C@@H](Cc2ccccc2)[C@H](O)CNCc2cccc(OC)c2)cc(N2CCCCS2(=O)=O)c1` it was 550 nM; in that of `CCCCCN1CCCC1CNS(=O)(=O)c1ccc(C(=O)Nc2ccc(C(F)(F)F)cc2)cc1` (stereo not given), 840 nM; in that of `CN(c1cc(NC(=O)c2cccs2)ccn1)C1CCN(Cc2cccc(F)c2)CC1`, 680 nM. For `Cn1nc(-c2ccc(CN[C@@H]3CCc4ccc(O)cc43)cc2)c2cnc(NCCCN3CCCC3)nc21` the value was 800 nM; for `CN(C)c1ccc(-c2csc(C(=O)NCC3CCN(Cc4cccc(C(F)(F)F)c4)C3)c2)cc1` (stereo not given), 840 nM; for `OCCN1CCN(Cc2ccc(-c3ccc(-c4nc5ccc(F)cc5[nH]4)cc3)cc2)CC1`, 570 nM. For `CC(NC(=O)c1ccc(O)c(-c2ccc(Cl)c(Cl)c2)c1)C(=O)NCCN1CCCC1` (stereo not given) the value was 760 nM; for `COc1ccc2[nH]cc(C3C[C@H]4CC[C@@H](C3)N4CCC3CCN(C(=O)/C=C/c4ccc(Cl)c(Cl)c4)CC3)c2c1` (stereo not given in full), 620 nM; for `CCCCCCCc1ccc(-c2c(C)[nH]c(C)c(Cl)c2=O)cn1`, 360 nM.

`CCOc1ccc2c(c1)N(C(=O)C=Cc1ccccc1)C(C)(C)c1ssc(=S)c1-2` came in with a half-maximal inhibitory concentration (IC50) of 1150 nM. As for `CN1CCC(C(=O)Nc2cccc(-c3ccc(-c4nc5ccccc5[nH]4)cc3)c2)CC1`, the IC50 was 1090 nM.

As to `COc1cc(CN2CCN(c3ccnc(N(C)C4CCN(C)CC4)n3)CC2)cc(Cl)c1O`, the IC50 is 780 nM. In the case of `CC(CN(C)C)C(=O)Nc1ccc(-c2ccc(-c3nc4ccc(F)cc4[nH]3)cc2)cc1` (stereo not given) it was 770 nM; in that of `COc1ccc2nccc(NN=Cc3cccnc3)c2c1`, 500 nM.

In turn, `Nc1nc(N)c2c(ccc3nccc32)[nH]1` had an IC50 of 1080 nM. For `Cc1ccc(CNC(=O)[C@H](Cc2ccccc2)Nc2cc(C)nc(NCC3CCCCC3)n2)cc1` the value was 900 nM; for `C=CCn1c(Sc2ccc(C#N)c([N+](=O)[O-])c2)nnc1-c1ccc(Cl)cc1`, 670 nM. For `CN(C)c1cccc2c1nc(-c1ccco1)n2CCNCc1ccccc1` the value was 810 nM.

Usually IC50 stands for the concentration needed to halve the response being measured. Low readings indicate greater potency in that assay, high ones weaker potency in that assay.
